Patent US20110201084A1, “ENZYMATIC HYDROLYSIS OF CELLULOSIC BIOMASS THROUGH ENHANCED REMOVAL OF OLIGOMERS” (THE REGENTS OF THE UNIVERSITY OF CALIFORNIA, priority 2008, published 2011)
Values belong to the compound of their own block, whether it stands above or below them.

What was measured:
cellulase [1] = test: Effect of xylose oligomer chain length on Avicel glucan initial hydrolysis rate; assay type: biochemical
Excerpt: FIG. 9 depicts the effect of xylose oligomer chain length on Avicel glucan initial hydrolysis rate at a cellulase loading of thirty FPU/g glucan and CBU to FPU activity ration of two.
Furthermore, these xylooligomers have been found in the liquor from pretreatment prior to enzymatic hydrolysis, with the amounts depending upon the type of pretreatment, substrate, and substrate loading. Furthermore, such xylooligomers can slow glucose and xylose release. […] In accordance with an aspect of the disclosure, 12.5 mg/ml (eighty mM xylose equivalent) of xylose, 6.6 mg/ml (forty-six mM xylose equivalent) and 16.6 mg/ml (one-hundred seventeen mM xylose equivalent) of xylobiose, and 6.6 mg/ml (forty-eight mM xylose equivalent) of xylotriose were added to two ml centrifuge tubes containing thirty mg of commercial grade cellulose in 1.5 ml of liquid at a cellulase loading of thirty FPU/g glucan, and initial hydrolysis rates were measured. Xylose alone at this concentration inhibited yields by about ten percent, but about half as much xylobiose, forty-six mM of xylose equivalent, reduced glucose release by eighteen percent. Furthermore, glucose release dropped by about thirty-two percent at a higher xylobiose loading of one-hundred seventeen mM of xylose equivalent. Adding almost half of the xylose concentration and about the same as the lower concentration of xylobiose, xylotriose (forty-eight mM xylose equivalent) reduced glucose release even more, by about twenty-four percent.

cellulase [2] = test: Hydrolysis of Avicel cellulose with added birch wood xylan, xylose and β-xylosidase; assay type: biochemical; details: xylose equivalent to 1% (w/v) xylan mixed with Avicel; 7.5 FPU/g glucan; 4 h rate
Procedure: Avicel+xylan−1% (w/v) each, Avicel+xylose−xylose equivalent to 1% (w/v) xylan. b-xylosidase loading was 28 mg/g glucan. Error bars represent the standard deviation.
Hydrolysis of one percent (w/w) commercial grade cellulose with an equal mass of birch wood xylan [approximately eighty-six percent xylan] was performed in triplicate at a cellulase plus β-glucosidase loading of 16.1 mg/glucan. Hydrolysis was also performed at a similar cellulase loading but supplemented with β-xylosidase at a loading of 14 mg/g glucan. To evaluate the effect of xylose alone on cellulose hydrolysis, cellulose containing an equivalent amount of xylose (1.053*amount of xylan) was enzymatically hydrolyzed in parallel. Controlled experiments for cellulose hydrolysis without xylan, cellulose with β-xylosidase only, and a substrate blank containing cellulose plus xylan were run in parallel. Samples were collected four, twenty-four, forty-eight, and seventy-two hours after initiation of hydrolysis and analyzed for sugars. Liquids produced by seventy-two hours of hydrolysis of samples containing xylan were post hydrolyzed to determine the amount of xylooligomers as described herein.
Referring now to FIG. 5, an aspect of the disclosure is the addition of β-xylosidase to effect hydrolysis of cellulose. […]
The concentration of xylose in the hydrolyzate was measured to be 5.5 g/l. […]

reduction of glucose release (Avicel initial hydrolysis) (cellulase [1]; xylobiose 6.6 mg/ml (forty-six mM xylose equivalent), thirty FPU/g glucan): eighteen
reduction of glucose release (Avicel initial hydrolysis) (cellulase [1]; xylobiose 16.6 mg/ml (one-hundred seventeen mM xylose equivalent), thirty FPU/g glucan): about thirty-two
Structure (SMILES): OC1OC[C@@H](O[C@@H]2OC[C@@H](O)[C@H](O)[C@H]2O)[C@H](O)[C@H]1O (some centres unmarked) [xylobiose]

reduction of glucose release (Avicel initial hydrolysis) (cellulase [1]; xylose 12.5 mg/ml (eighty mM xylose equivalent), cellulase thirty FPU/g glucan): about ten
inhibition of enzyme action (cellulase [2]): 12%
Structure (SMILES): O=C[C@H](O)[C@@H](O)[C@H](O)CO [xylose]

reduction of glucose release (Avicel initial hydrolysis) (cellulase [1]; xylotriose 6.6 mg/ml (forty-eight mM xylose equivalent), thirty FPU/g glucan): about twenty-four
Structure (SMILES): OC1OC[C@@H](O[C@@H]2OC[C@@H](O[C@@H]3OC[C@@H](O)[C@H](O)[C@H]3O)[C@H](O)[C@H]2O)[C@H](O)[C@H]1O (some centres unmarked) [xylotriose]
